A word on the IC50: it is the point on the concentration scale where inhibition reaches its midpoint.

The values that follow come from US10562912B2 (C&C Research Laboratories, priority 2013, dated 2020).

Common to all, as to assay type: cell-based
In one test the test system is MDA-MB-231. Description: Cell growth inhibition assay, breast cancer cell line MDA-MB-231. The following applies: Homo sapiens; MDA-MB-231 breast cancer cell line, 5,000 cells/well. How it is done:
The inhibitory effects of the compounds of the present invention against the growth of cancer cells were evaluated as shown below. The cancer cell lines including stomach cancer cell line (AGS), breast cancer cell lines (MDA-MB-231, MDA-MB-468, and BT-549), prostate cancer cell lines (LNCaP and DU-145), colon cancer cell line (HCT116), ovarian cancer cell line (SW626), liver cancer cell line (Hep3B), kidney cancer cell line (ACHN), lung cancer cell line (NCI-H23) and blood cancer cell lines (HEL92.1.7 and U266) were cultured under the protocol provided by each supplier. A medium supplemented with 10 ng/mL of IL-6 was used for LNCaP, a prostate cancer cell line, when treated with a drug. Each type of cells to be used in experiments were sub-cultured in a 96-well plate by counting the exact number of cells using Tali™ Image-based Cytometer (Life Technologies). In a 96-well plate, AGS, HCT116, and DU-145 were employed with 3,000 cells/well; NCI-H23, SW626, Hep3B, ACHN, BT-549, MDA-MB-231, HEL92.1.7, and U266 were employed with 5,000 cells/well; and LNCaP and MDA-MB-468 were employed with 10,000 cells/well. The cells were treated with the compounds listed in Examples which were diluted in various concentrations. Upon completion of the compounds treatment, AGS, HCT116, SW626, DU145, NCI-H23, Hep3B, ACHN, BT-549, LNCaP, HEL92.1.7, and U266 cells were cultured at 37° C. under 5% CO2 for from 72 to 96 hours, and MDA-MB-231 and MDA-MB-468 cells were cultured at 37° C. in air for from 72 to 96 hours. Subsequently, the cells were observed under microscope and drug precipitation and particular findings were investigated and recorded. And then, the 96-well plate was placed at room temperature for 30 minutes, added with 20 μL/well of CellTiter-Glo solution (Cat No. G7573, Promega) and shaken for 10 minutes, followed by being subjected to the measurement using PHERAstar™ microplate reader (BMG LABTECH) according to the supplier's general luminometer protocol. Wells where only culture liquid added without cell plating were used as a negative control, whereas wells where culture liquid containing 0.1% DMSO instead of the compounds listed in Examples were used as a positive control.

Another test concerns LNCaP. The experiment in a line: Cell growth inhibition assay, prostate cancer cell line LNCaP (medium with 10 ng/mL IL-6). Particulars: Homo sapiens, medium supplemented with 10 ng/mL of IL-6, 10,000 cells/well.
In another test the target is T1, STAT3 (Homo sapiens, UniProt P40763).
T1 construct: plasmid pSTAT3-TA-luc), which contains a stably operating STAT3 promoter; endogenous in cells
Description: STAT3 reporter gene assay (luciferase), LNCaP stable cell line (pSTAT3-TA-luc), IL-6 stimulation. In a few lines: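 LNCaP cells stably carrying pSTAT3-TA-luc, in RPMI1640 with 3% DCC-FBS, were treated with compound and then stimulated with 10 ng/mL IL-6 for 24–48 h at 37 °C. Luciferase activity was measured in lysates. A parallel plate measured viability by CellTiter-Glo, with stimulated 0.1% DMSO wells as the positive control.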

T1 sequence (P40763 whole entry): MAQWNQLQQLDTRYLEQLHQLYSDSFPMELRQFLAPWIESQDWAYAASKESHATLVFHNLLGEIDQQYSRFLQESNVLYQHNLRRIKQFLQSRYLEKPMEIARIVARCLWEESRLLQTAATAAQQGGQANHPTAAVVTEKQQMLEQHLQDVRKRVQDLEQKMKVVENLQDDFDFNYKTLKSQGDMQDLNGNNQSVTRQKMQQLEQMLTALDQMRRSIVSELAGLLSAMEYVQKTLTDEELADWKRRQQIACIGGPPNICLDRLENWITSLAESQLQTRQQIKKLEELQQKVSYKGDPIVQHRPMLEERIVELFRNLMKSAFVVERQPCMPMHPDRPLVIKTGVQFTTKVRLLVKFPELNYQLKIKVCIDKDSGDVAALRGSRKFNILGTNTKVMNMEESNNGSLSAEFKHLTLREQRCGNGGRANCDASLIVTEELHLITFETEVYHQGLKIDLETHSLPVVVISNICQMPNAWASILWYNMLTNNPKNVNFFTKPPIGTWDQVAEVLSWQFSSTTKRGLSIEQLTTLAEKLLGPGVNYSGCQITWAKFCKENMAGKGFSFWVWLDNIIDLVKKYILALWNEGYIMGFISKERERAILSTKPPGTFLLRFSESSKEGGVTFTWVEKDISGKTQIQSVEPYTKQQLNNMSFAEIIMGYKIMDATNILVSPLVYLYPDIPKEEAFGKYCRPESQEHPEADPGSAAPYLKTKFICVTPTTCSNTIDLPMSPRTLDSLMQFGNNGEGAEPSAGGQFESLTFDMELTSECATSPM

Consider `COc1cccc(C(C)(C)c2cccc(NC(=O)c3cc4cc(NS(C)(=O)=O)ccc4s3)c2)c1` [Example 38, N-(3-(2-(3-methoxyphenyl)propan-2-yl)phenyl)-5-(methylsulfonamido)benzo[b]thiophene-2-carboxamide], for which the IC50 came to 0.049 µM in the test on MDA-MB-231, 0.8 µM with LNCaP and 0.1 µM against STAT3.
For the molecule `CC(C)(c1ccc(F)cc1)c1cc(NC(=O)c2cc3cc(NS(C)(=O)=O)ccc3s2)cc(OC(F)F)c1` [Example 39, N-(3-(difluoromethoxy)-5-(2-(4-fluorophenyl)propan-2-yl)phenyl)-5-(methylsulfonamido)benzo[b]thiophene-2-carboxamide], the IC50 was 0.05 µM in the test on MDA-MB-231, 0.22 µM in the test with LNCaP and 0.048 µM against STAT3.
On the same counts, the results for `CC(C)(c1ccc(F)cc1)c1cc(Cl)cc(NC(=O)c2cc3cc(NS(C)(=O)=O)ccc3s2)c1` [Example 40, N-(3-chloro-5-(2-(4-fluorophenyl)propan-2-yl)phenyl)-5-(methylsulfonamido)benzo[b]thiophene-2-carboxamide] are 0.006 µM, 0.37 µM and 0.076 µM.
As for `COc1cc(OC(F)(F)F)cc(C(C)(C)c2cc(NC(=O)c3cc4cc(NS(C)(=O)=O)ccc4s3)cc(OC(F)F)c2)c1` [Example 41, N-(3-(difluoromethoxy)-5-(2-(3-methoxy-5-(trifluoromethoxy)phenyl)propan-2-yl)phenyl)-5-(methylsulfonamido)benzo[b]thiophene-2-carboxamide], the values for the IC50 in the test with MDA-MB-231, with LNCaP and at STAT3 were 0.024 µM, 0.11 µM and 0.028 µM, respectively.
As for `CC(C)(c1cc(Br)cc(NC(=O)c2cc3cc(NS(C)(=O)=O)ccc3s2)c1)c1cc(OCC(N)=O)ccc1F` [Example 44, N-(3-(2-(5-(2-amino-2-oxoethoxy)-2-fluorophenyl)propan-2-yl)-5-bromophenyl)-5-(methylsulfonamido)benzo[b]thiophene-2-carboxamide], the IC50 in the test on MDA-MB-231 came to 4 µM; in the test with LNCaP, 5.2 µM; against STAT3, 1.4 µM.
As for `CC(C)(Oc1cccc(C(C)(C)c2cc(Br)cc(NC(=O)c3cc4cc(NS(C)(=O)=O)ccc4s3)c2)c1)C(N)=O` [Example 45, N-(3-(2-(3-((1-amino-2-methyl-1-oxopropan-2-yl)oxy)phenyl)propan-2-yl)-5-bromophenyl)-5-(methylsulfonamido)benzo[b]thiophene-2-carboxamide], the results for the IC50 in the test on MDA-MB-231, in the test on LNCaP and at STAT3 were 0.38 µM, 4.4 µM and 1.3 µM, respectively.
In the same order, the values of `CC(C)(c1cc(Br)cc(NC(=O)c2cc3cc(NS(C)(=O)=O)ccc3s2)c1)c1cccc(OC(F)F)c1` [Example 46, N-(3-bromo-5-(2-(3-(difluoromethoxy)phenyl)propan-2-yl)phenyl)-5-(methylsulfonamido)benzo[b]thiophene-2-carboxamide] are 0.029 µM, 0.13 µM and 0.082 µM.
In the same order, the values of `CC(C)(c1cc(Br)cc(NC(=O)c2cc3cc(NS(C)(=O)=O)ccc3s2)c1)c1cc(OC(F)(F)F)ccc1F` [Example 47, N-(3-bromo-5-(2-(2-fluoro-5-(trifluoromethoxy)phenyl)propan-2-yl)phenyl)-5-(methylsulfonamido)benzo[b]thiophene-2-carboxamide] are 0.006 µM, 0.031 µM and 0.008 µM.
In the same order, the values of `Cc1c(C(=O)Nc2cccc(C(C)(C)c3ccc(F)cc3)c2)sc2cc(NS(C)(=O)=O)ccc12` [Example 51, N-(3-(2-(4-fluorophenyl)propan-2-yl)phenyl)-3-methyl-6-(methylsulfonamido)benzo[b]thiophene-2-carboxamide] are 0.62 µM, 3.5 µM and 0.55 µM.
As for `Cc1c(C(=O)Nc2cccc(C(C)(C)c3ccc(F)cc3)c2)sc2ccc(NS(C)(=O)=O)cc12` [Example 52, N-(3-(2-(4-fluorophenyl)propan-2-yl)phenyl)-3-methyl-5-(methylsulfonamido)benzo[b]thiophene-2-carboxamide], the IC50 in the test with MDA-MB-231 is 0.7 µM; with LNCaP it was 4.7 µM; against STAT3 it was 1.5 µM.
Take `CCC(CC)(c1ccc(F)cc1)c1cc(Br)cc(NC(=O)c2cc3cc(NS(C)(=O)=O)ccc3s2)c1` [Example 53, N-(3-bromo-5-(3-(4-fluorophenyl)pentan-3-yl)phenyl)-5-(methylsulfonamido)benzo[b]thiophene-2-carboxamide]: the IC50 in the test with MDA-MB-231 turned out to be 0.022 µM; in the test on LNCaP it was 0.07 µM; against STAT3, 0.026 µM.
On to `CCC(CC)(c1cc(NC(=O)c2cc3ccc(NS(C)(=O)=O)cc3[nH]2)cc(OC)c1)c1cc(OC)cc(OC(F)(F)F)c1` [Example 55, N-(3-methoxy-5-(3-(3-methoxy-5-(trifluoromethoxy)phenyl)pentan-3-yl)phenyl)-6-(methylsulfonamido)-1H-indole-2-carboxamide], for which the figures for the IC50 in the test with MDA-MB-231, with LNCaP and at STAT3 were 0.081 µM, 0.54 µM and 0.16 µM, respectively.
In the case of `C#Cc1cc(NC(=O)c2cc3ccc(NS(C)(=O)=O)cc3[nH]2)cc(C(C)(C)c2ccc(F)cc2)c1` [Example 107, N-(3-ethynyl-5-(2-(4-fluorophenyl)propan-2-yl)phenyl)-6-(methylsulfonamido)-1H-indole-2-carboxamide], the values for the IC50 in the test with MDA-MB-231, with LNCaP and on STAT3 were 0.29 µM, 1.2 µM and 0.42 µM, respectively.
With `C#Cc1cc(NC(=O)c2cc3cc(NS(C)(=O)=O)ccc3s2)cc(C(C)(C)c2ccc(F)cc2)c1` [Example 108, N-(3-ethynyl-5-(2-(4-fluorophenyl)propan-2-yl)phenyl)-5-(methylsulfonamido)benzo[b]thiophene-2-carboxamide], the IC50 with MDA-MB-231 was 0.073 µM; in the test on LNCaP it was 0.31 µM; against STAT3, 0.078 µM.
On to `C#Cc1cc(NC(=O)c2cc3cc(NS(C)(=O)=O)ccc3s2)cc(C(C)(C)c2ccc(F)cc2F)c1` [Example 109, N-(3-(2-(2,4-difluorophenyl)propan-2-yl)-5-ethynylphenyl)-5-(methylsulfonamido)benzo[b]thiophene-2-carboxamide], for which the IC50 amounted to 0.09 µM with MDA-MB-231, 0.42 µM in the test with LNCaP and 0.078 µM on STAT3.
On the same counts, the results for `CC(C)(c1ccc(F)cc1)c1cccc(NC(=O)c2sc3cc(NS(C)(=O)=O)ccc3c2Cl)c1` [Example 110, 3-chloro-N-(3-(2-(4-fluorophenyl)propan-2-yl)phenyl)-6-(methylsulfonamido)benzo[b]thiophene-2-carboxamide] are 3.3 µM, over 10 µM and 4.3 µM.
On the same counts, the results for `CS(=O)(=O)Nc1ccc2c(Cl)c(C(=O)Nc3cccc(-c4ccc(F)cc4F)c3)sc2c1` [Example 111, 3-chloro-N-(2′,4′-difluoro-[1,1′-biphenyl]-3-yl)-6-(methylsulfonamido)benzo[b]thiophene-2-carboxamide] are 6.3 µM, over 10 µM and over 10 µM.
On the same counts, the results for `COc1cc(NS(C)(=O)=O)cc2cc(C(=O)Nc3cccc(-c4ccc(F)cc4F)c3)oc12` [Example 112, N-(2′,4′-difluoro-[1,1′-biphenyl]-3-yl)-7-methoxy-5-(methylsulfonamido)benzofuran-2-carboxamide] are over 10 µM, 8.6 µM and 6.8 µM.
Take `COc1cc(NS(C)(=O)=O)cc2cc(C(=O)Nc3cccc(C(C)(C)c4ccc(F)cc4)c3)oc12` [Example 113, N-(3-(2-(4-fluorophenyl)propan-2-yl)phenyl)-7-methoxy-5-(methylsulfonamido)benzofuran-2-carboxamide]: the IC50 in the test on MDA-MB-231 was 6.4 µM; in the test with LNCaP, over 10 µM; against STAT3, 8.9 µM.
In the case of `CC(C)(c1cccc(CN2CCNCC2)c1)c1cc(Br)cc(NC(=O)c2cc3cc(NS(C)(=O)=O)ccc3s2)c1` [Example 118, N-(3-bromo-5-(2-(3-(piperazin-1-ylmethyl)phenyl)propan-2-yl)phenyl)-5-(methylsulfonamido) benzo[b]thiophene-2-carboxamide], the IC50 in the test on MDA-MB-231 is 8.6 µM; in the test with LNCaP it was over 10 µM; against STAT3, over 10 µM.
